Data reported in ChEMBL document CHEMBL4699470, “N-Substituted piperazine derivatives as potential multitarget agents acting on histamine H receptor and cancer resistance proteins” (Bioorg Med Chem Lett, 2020).

Key:
L5178Y [1] = assay: Antiproliferative activity against mouse L5178Y cells by MTT assay; type: functional, cell-based
[2] = target: T1, ATP-dependent translocase ABCB1 (Homo sapiens, UniProt P08183); assay: Inhibition of human ABCB1 in expressed in multidrug resistant mouse L5178Y cells assessed as fluorescence activity ratio at 2 uM by rhodamine 123 retention assay relative to parental L5178Y cells; type: cell-based
T1 sequence (P08183 whole entry): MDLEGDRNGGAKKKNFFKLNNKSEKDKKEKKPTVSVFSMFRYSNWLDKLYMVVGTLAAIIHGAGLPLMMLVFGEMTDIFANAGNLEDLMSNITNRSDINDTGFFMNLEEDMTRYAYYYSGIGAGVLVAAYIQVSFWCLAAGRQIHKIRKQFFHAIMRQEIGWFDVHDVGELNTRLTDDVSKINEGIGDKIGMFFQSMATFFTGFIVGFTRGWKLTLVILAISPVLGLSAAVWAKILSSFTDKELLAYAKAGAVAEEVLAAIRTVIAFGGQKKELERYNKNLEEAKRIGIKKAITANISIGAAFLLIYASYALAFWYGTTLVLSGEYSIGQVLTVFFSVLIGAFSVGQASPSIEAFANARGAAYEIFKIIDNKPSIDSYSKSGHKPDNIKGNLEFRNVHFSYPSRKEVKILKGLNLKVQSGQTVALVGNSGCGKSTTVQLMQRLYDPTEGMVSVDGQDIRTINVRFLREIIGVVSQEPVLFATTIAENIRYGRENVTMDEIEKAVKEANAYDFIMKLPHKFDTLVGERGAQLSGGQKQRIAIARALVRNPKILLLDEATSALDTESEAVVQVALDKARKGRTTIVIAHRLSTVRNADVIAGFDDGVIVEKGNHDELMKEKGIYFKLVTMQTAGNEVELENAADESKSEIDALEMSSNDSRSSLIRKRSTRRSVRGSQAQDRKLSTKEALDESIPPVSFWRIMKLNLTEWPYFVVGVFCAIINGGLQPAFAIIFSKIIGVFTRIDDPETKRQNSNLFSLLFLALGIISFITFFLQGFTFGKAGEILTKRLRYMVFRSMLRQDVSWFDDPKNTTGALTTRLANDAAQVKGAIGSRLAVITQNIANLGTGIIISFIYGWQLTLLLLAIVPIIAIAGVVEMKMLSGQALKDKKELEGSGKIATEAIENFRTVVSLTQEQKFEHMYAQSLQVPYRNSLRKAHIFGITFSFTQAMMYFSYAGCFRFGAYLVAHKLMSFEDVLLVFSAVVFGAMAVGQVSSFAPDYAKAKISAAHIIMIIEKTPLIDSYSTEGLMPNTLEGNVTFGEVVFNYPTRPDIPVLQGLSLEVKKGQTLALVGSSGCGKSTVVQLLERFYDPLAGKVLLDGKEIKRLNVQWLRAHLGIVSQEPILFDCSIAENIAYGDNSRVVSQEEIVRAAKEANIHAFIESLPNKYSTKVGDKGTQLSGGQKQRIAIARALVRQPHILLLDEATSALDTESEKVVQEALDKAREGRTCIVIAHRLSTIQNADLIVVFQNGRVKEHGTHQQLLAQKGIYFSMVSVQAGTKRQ

[3] = target: T1, ATP-dependent translocase ABCB1; assay: Inhibition of human ABCB1 in expressed in multidrug resistant mouse L5178Y cells assessed as fluorescence activity ratio at 20 uM by rhodamine 123 retention assay relative to parental L5178Y cells; type: cell-based
L5178Y [4] = assay: Cytotoxicity against multidrug resistance mouse L5178Y cells expressing human MDR1 assessed as reduction in cell viability by MTT assay; type: functional, cell-based
L5178Y [5] = assay: Antiproliferative activity against multidrug resistance mouse L5178Y cells expressing human MDR1 by MTT assay; type: functional, cell-based
L5178Y [6] = assay: Cytotoxicity against mouse L5178Y cells assessed as reduction in cell viability by MTT assay; type: functional, cell-based
[7] = target: T1, ATP-dependent translocase ABCB1; assay: Inhibition of human ABCB1 in expressed in multidrug resistant mouse L5178Y cells assessed as fluorescence activity ratio by rhodamine 123 retention assay relative to verapamil; type: cell-based
Homo sapiens = species: Homo sapiens; assay: Substrate activity at Pgp (unknown origin) assessed as increase in ATP basal consumption at 100 uM by Pgp-Glo luminescence assay relative to control

| Compound | Ratio [2] | Ratio [3] | Ratio [7] | Activity (Homo sapiens) [%] | IC50 (L5178Y [1]) [µM] | IC50 (L5178Y [4]) [µM] | IC50 (L5178Y [5]) [µM] | IC50 (L5178Y [6]) [µM] |
| --- | --- | --- | --- | --- | --- | --- | --- | --- |
| CCC(=O)c1ccc(OCCCN2CCN(c3ncccn3)CC2)cc1 | 0.92 | 1.02 | – | – | 36.9 | 54.6 | 41.3 | > 100 |
| CCC(=O)c1ccc(OCCCN2CCN(c3cnccn3)CC2)cc1 | 0.83 | 0.82 | – | – | 24.3 | 60.3 | 30 | 47.5 |
| CCC(C)(C)c1ccc(OCCCCN2CCN(c3ncccn3)CC2)cc1 | 2.17 | 32.32 | 1.6 | – | 17.7 | 32.1 | 18.9 | 46.4 |
| CC(C)(C)c1ccc(OCCCCN2CCN(c3cnccn3)CC2)cc1 | 1.36 | 17.85 | 1.6 | – | 9.86 | 27.6 | 9.68 | 18.3 |
| CSc1ccc2c(c1)N(CCC1CCCCN1C)c1ccccc1S2 (configuration not stated) [THIORIDAZINE] | – | – | – | – | – | 7.43 | – | 12.7 |
| CC(=O)c1ccc(OCCCCN2CCN(c3ncccn3)CC2)cc1 | 0.86 | 1.28 | – | – | 31.6 | 63.9 | 38.9 | > 100 |
| CCC(C)(C)c1ccc(OCCCCN2CCN(c3cnccn3)CC2)cc1 | 1.85 | 73.64 | 1.6 | > 100 | 9.56 | 12.8 | 9.49 | 12.6 |
| CC(=O)c1ccc(OCCCN2CCN(c3ncccn3)CC2)cc1 | 1.06 | 1.03 | – | – | 53.2 | – | 77.5 | > 100 |
| CC(C)(C)c1ccc(OCCCCN2CCN(c3ccccn3)CC2)cc1 | 1.74 | 38.41 | 1.6 | > 100 | 11.9 | 16.7 | 16.4 | 15.1 |
| CC(=O)c1ccc(OCCCCN2CCN(c3cccnc3)CC2)cc1 | 0.84 | 0.99 | – | – | 24.2 | 44 | 29.8 | 69 |
| CC(=O)c1ccc(OCCCN2CCN(c3ccncc3)CC2)cc1 | 1.29 | 1.61 | – | – | 42.3 | – | 43.8 | > 100 |

More lines, main results first:

| Ratio [2] | Ratio [3] | Ratio [7] | Activity (Homo sapiens) [%] | Compound | IC50 (L5178Y [1]) [µM] | IC50 (L5178Y [4]) [µM] | IC50 (L5178Y [5]) [µM] | IC50 (L5178Y [6]) [µM] |
| --- | --- | --- | --- | --- | --- | --- | --- | --- |
| 0.98 | 8.71 | 1.6 | – | CC(=O)c1ccc(OCCCCN2CCN(c3ccccn3)CC2)cc1 | 24.1 | 46.2 | 25.5 | 63.7 |
| 0.92 | 0.84 | – | – | CC(=O)c1ccc(OCCCN2CCN(c3ccccn3)CC2)cc1 | 27.1 | 49.7 | 32.8 | – |
| 0.93 | 1.02 | – | – | CC(C)(C)c1ccc(OCCCN2CCN(c3ncccn3)CC2)cc1 | 25.6 | 49.4 | 20.7 | 40.4 |
| 2.81 | 25.33 | 1.6 | > 100 | CC(C)(C)c1ccc(OCCCCN2CCN(c3cccnc3)CC2)cc1 | 5.48 | 10.5 | 5.99 | 11.7 |
| 5.95 | 19.26 | 1.6 | > 100 | CCC(C)(C)c1ccc(OCCCCN2CCN(c3cccnc3)CC2)cc1 | 3.23 | 7.59 | 3.68 | 9.23 |
| 2.7 | 34.05 | 1.6 | – | CC(C)(C)c1ccc(OCCCCN2CCN(c3ncccn3)CC2)cc1 | 11.3 | 17.6 | 9.88 | 20.8 |
